O=C(O)CNC(=O)c1ccccc1
solubility (mole fraction)
Details	in 1,4-dioxane	in DMF	in THF	in chloroform	in ethanol	in methanol	in n-butanol	in n-propanol
298.15 K	0.00729	0.206	0.0142	0.00021	0.0148	0.0179	0.00776	0.00884
303.15 K	0.0084	0.213	0.0167	0.00035	0.0162	0.0197	0.00908	0.0108
308.15 K	0.0109	0.219	0.018	0.00052	0.0194	0.023	0.0106	0.0121
313.15 K	0.014	0.226	0.0209	0.0007	0.024	0.0275	0.0128	0.0151
318.15 K	0.0164	0.232	0.0228	0.00088	0.029	0.0323	0.0151	0.0174
323.15 K	0.0182	0.239	0.026	0.00102	0.0342	0.0378	0.0178	0.0201
328.15 K	0.0209	0.246	0.0291	0.0011	0.0396	0.0448	0.0205	0.0232

— BigSolDB 2.1
